Assay results from ChEMBL document CHEMBL1201862, “PubChem BioAssay data set” (2004).
Active and inactive are the calls of the source.

Tests used:
[1] = cytotoxicity toward NIH3T3 fibroblasts, dose response, counter-screen, cell-based, ATP luminescence, mouse fibroblasts (AID 2010); format: functional;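 also: cells exposed to compound for about 90 hours before reading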
[2] = molecular target: T1, Apoptotic protease-activating factor 1 (Homo sapiens, UniProt O14727); format: functional
T1 sequence (O14727 whole entry): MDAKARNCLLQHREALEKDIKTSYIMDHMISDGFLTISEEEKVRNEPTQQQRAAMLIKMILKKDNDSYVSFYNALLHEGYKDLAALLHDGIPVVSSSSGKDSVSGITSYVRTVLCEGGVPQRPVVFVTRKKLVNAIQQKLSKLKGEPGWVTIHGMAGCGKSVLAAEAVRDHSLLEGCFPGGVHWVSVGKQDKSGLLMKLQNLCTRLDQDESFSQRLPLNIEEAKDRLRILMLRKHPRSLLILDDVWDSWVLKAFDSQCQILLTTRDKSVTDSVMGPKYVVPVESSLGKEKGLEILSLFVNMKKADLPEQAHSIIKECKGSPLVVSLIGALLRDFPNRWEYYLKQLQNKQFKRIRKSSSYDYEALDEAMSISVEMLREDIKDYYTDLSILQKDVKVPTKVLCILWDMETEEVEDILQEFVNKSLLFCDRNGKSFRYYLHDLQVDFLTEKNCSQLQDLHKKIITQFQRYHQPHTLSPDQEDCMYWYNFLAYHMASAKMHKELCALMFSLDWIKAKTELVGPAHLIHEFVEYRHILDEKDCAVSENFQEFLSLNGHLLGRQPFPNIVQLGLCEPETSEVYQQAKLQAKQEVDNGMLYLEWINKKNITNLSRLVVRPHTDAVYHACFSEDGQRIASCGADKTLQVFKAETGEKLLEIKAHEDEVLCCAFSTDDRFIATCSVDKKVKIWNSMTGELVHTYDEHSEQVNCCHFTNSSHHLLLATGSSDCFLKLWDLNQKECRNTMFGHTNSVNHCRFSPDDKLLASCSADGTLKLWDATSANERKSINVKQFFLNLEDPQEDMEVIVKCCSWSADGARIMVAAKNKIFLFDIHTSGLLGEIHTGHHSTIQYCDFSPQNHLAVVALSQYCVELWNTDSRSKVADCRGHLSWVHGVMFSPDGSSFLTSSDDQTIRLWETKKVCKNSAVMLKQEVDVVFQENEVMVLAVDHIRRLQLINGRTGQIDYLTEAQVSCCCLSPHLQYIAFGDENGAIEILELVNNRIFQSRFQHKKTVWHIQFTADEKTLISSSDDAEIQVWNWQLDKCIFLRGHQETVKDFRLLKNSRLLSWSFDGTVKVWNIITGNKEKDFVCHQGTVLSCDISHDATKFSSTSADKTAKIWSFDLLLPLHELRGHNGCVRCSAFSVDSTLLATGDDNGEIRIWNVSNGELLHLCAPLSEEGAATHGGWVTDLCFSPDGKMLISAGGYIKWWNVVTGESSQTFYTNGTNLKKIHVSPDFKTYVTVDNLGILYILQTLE

[3] = inhibitors of intracellular T. cruzi replication, confirmation, NIH3T3 host cells, beta-gal luminescence (AID 2044); format: functional, cell-based;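 also: intracellular parasites grown in NIH/3T3 mouse fibroblasts as host cells; luminescent beta-galactosidase reporter signal from transgenic T. cruzi replicating inside host cells; inhibitors lower the luminescence signal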
Genome polyprotein = Genome polyprotein (dengue virus type 2, UniProt P29990); assay: Dengue-2 NS5 methyltransferase inhibitors, primary screen, biochemical, confirmation dose response (AID 588689); format: functional
Cytochrome P450 3A4 [4] = molecular target: T2, Cytochrome P450 3A4 (Homo sapiens, UniProt P08684); details: Potency
[5] = molecular target: Heat shock protein HSP 90-alpha (Homo sapiens, UniProt P07900); format: functional, organism-based
Vero = Vero cell cytotoxicity, cytotoxicity control for flavivirus capping enzyme inhibitors (AID 588742); format: functional; details: Chlorocebus sabaeus
HEK293 = assay: inhibitors of LMP1-driven NF-kB reporter, dose response, cell-based, HEK293, luciferase, cherry-pick (AID 588343); format: functional; details: Homo sapiens
[6] = molecular target: T3, Short transient receptor potential channel 4 (Mus musculus, UniProt Q9QUQ5); assay: mouse TRPC4 channel inhibitors, dose response, cell-based, HEK293 TRPC4/mu-opioid, Fluo-4 calcium (AID 434942); format: functional;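 also: potency of inhibitors blocking the TRPC4 calcium response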
T3 sequence (Q9QUQ5 whole entry): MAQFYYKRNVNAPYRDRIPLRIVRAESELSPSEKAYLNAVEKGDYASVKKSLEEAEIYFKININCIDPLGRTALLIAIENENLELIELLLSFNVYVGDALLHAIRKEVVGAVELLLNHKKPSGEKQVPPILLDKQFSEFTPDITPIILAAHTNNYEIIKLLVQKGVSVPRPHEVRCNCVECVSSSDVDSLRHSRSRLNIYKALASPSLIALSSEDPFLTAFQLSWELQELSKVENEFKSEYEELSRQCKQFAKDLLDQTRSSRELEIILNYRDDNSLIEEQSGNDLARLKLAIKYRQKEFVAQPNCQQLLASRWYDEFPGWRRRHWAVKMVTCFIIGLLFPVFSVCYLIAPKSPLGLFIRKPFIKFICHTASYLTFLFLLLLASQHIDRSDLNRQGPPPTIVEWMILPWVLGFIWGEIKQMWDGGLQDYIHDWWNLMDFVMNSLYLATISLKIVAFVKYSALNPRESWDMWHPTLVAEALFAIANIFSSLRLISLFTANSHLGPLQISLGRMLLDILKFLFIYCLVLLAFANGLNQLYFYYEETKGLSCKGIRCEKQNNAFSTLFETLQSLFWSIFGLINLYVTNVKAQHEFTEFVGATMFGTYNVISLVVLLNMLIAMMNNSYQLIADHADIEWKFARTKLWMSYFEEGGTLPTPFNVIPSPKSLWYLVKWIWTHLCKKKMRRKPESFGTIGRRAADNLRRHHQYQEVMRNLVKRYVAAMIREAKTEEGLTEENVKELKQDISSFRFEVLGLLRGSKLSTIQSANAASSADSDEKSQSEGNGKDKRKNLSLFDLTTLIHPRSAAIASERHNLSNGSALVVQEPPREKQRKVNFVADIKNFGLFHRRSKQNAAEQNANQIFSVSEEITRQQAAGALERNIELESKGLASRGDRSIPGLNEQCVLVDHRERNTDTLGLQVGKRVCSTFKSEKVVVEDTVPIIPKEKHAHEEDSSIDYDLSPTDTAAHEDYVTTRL

Cytochrome P450 3A4 [7] = molecular target: T2, Cytochrome P450 3A4
Cytochrome P450 1A2 = molecular target: T4, Cytochrome P450 1A2 (Homo sapiens, UniProt P05177);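 also: PubChem cytochrome P450 panel assay, CYP1A2 panel member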
T4 sequence (P05177 whole entry): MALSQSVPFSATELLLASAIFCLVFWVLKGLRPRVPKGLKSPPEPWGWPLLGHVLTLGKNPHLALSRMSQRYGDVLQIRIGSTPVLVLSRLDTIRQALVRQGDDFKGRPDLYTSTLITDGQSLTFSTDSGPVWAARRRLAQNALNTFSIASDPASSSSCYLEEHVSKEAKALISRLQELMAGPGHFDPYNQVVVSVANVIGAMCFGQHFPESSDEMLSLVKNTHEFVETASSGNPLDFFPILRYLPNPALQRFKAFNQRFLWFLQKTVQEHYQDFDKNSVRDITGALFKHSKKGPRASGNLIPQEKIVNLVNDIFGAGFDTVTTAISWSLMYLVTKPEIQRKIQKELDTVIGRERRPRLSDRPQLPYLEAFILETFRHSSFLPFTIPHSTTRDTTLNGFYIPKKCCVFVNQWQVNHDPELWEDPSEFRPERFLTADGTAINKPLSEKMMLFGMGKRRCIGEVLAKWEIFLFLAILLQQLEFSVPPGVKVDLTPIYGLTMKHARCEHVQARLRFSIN

T2 sequence (P08684 whole entry): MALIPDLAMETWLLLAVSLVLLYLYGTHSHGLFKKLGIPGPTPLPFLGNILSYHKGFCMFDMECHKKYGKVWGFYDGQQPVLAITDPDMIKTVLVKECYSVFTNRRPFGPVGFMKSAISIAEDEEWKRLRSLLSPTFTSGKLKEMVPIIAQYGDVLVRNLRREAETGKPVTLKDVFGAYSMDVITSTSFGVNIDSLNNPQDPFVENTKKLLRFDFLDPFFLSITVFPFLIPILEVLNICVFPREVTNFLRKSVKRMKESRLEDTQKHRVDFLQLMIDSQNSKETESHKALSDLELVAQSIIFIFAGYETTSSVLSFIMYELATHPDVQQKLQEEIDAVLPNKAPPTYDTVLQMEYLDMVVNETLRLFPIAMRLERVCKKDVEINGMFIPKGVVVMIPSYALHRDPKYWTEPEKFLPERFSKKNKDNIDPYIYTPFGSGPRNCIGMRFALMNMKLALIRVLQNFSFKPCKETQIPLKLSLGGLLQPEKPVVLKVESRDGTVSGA
Sequence of Genome polyprotein (P29990 2492-3391 limits assumed): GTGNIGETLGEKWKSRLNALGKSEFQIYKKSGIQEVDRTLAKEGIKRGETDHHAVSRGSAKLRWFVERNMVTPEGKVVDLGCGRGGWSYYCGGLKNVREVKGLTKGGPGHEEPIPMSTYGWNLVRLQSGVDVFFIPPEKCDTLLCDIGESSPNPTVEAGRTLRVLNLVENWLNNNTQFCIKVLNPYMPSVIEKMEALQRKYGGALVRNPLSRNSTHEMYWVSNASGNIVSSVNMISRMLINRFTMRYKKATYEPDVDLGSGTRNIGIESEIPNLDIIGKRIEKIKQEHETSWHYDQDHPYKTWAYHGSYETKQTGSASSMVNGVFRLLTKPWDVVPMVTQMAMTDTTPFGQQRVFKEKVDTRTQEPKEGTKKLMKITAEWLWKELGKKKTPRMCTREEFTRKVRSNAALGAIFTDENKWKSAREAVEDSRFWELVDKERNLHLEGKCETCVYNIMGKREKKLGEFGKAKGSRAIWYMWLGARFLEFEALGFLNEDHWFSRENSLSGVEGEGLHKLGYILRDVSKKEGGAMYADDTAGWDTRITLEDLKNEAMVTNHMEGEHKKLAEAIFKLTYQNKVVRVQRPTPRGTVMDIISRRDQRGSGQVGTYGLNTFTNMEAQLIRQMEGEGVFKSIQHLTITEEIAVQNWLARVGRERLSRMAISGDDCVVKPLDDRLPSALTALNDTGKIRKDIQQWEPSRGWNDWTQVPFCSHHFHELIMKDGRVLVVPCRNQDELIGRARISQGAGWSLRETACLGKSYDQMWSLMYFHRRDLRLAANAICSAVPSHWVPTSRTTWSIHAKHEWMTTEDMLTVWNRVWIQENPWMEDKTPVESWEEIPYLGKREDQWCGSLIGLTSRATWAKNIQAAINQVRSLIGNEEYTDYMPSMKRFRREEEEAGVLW

For CCCc1cc(=O)oc2c3c(c4c(c12)OC(C)(C)C=C4)O[C@H](C)[C@@H](C)[C@@H]3O [CALANOLIDE A], which EC50 [1] is on record?
Its EC50 is 4.87 µM (active).

And the IC50 [2]?
Its IC50 is 20.3 µM (active).

And the EC50 [3]?
The EC50 was 2.28 µM (active).

With COc1cccc(/C=C2/C(=O)NN(c3ccc(C)c(C)c3)C2=O)c1 as the molecule, how does the IC50 (Genome polyprotein) read?
Its IC50 is > 100 µM (active).

Which AC50 (Cytochrome P450 3A4 [4]) does the source give for CCCn1c(-c2ccc(F)cc2)nc2c(NCCN(CC)CC)nc(C)nc21 here?
The AC50 was 15.8 µM (inconclusive).

What does the source list for Oc1cc(Cl)c(Cl)c(Cl)c1Cl?
AC50 [5]: 2.06 µM (active); AC50 (Cytochrome P450 3A4 [4]): 12.6 µM (inconclusive)

Which IC50 (Genome polyprotein) does the source give for O=C1C(O)=CC(=C(c2ccccc2)c2ccccc2)c2ccccc21 here?
The IC50 was > 100 µM (active).

And the CC50 (Vero)?
The CC50 was > 40 µM (active).

Which AC50 (HEK293) does the source give for Cc1cccc(/C=N/NC(=O)CNc2cccc3ccccc23)n1 here?
The AC50 was 107 µM (active).

For Cc1c(NC(=O)c2cc(-c3cccs3)nc3ccccc23)c(=O)n(-c2ccccc2)n1C, which AC50 (HEK293) is on record?
Its AC50 is > 350 µM (inactive).

Which EC50 [6] does the source give for Cc1cccc2nc(CSc3ccc(Cl)cc3)cn12 here?
The EC50 was 4.22 µM (active).

Which EC50 [6] does the source give for Nc1c2c(nc3ccccc13)CCC2 here?
The EC50 was 4.22 µM (active).

Which AC50 (Cytochrome P450 3A4 [4]) does the source give for CC1(C)C[C@@H]2C(=O)CCC3O[C@@]3(C)CCC21 (stereo partly specified) here?
The AC50 was 12.6 µM (inconclusive).

For CCCCCc1ccc(OCCC[n+]2ccccc2)c(CCCCC)c1, which EC50 [1] is on record?
Its EC50 is > 60 µM (not active).

What about the IC50 [2] of the same molecule?
The IC50 was 84.9 µM (active).

What about the EC50 [3] of the same molecule?
The EC50 was 0.122 µM (active).

Which results are given for COC(=O)c1ccccc1-c1ccc(/C=C2\C(=O)N(c3ccccc3)N=C2c2ccccc2)o1?
AC50 (Cytochrome P450 3A4 [7]): 2.82 µM (inconclusive); IC50 [2]: 28.9 µM (active); AC50 (Cytochrome P450 1A2): 5.01 µM (inconclusive)

For Cc1cccn2cc(-c3c[nH]c4ccccc34)nc12, which EC50 [6] is on record?
Its EC50 is 5.96 µM (active).
